Test results taken from article PMC8632000 (Frontiers in Pharmacology, 2021).

What was measured:
[1] = Population pharmacokinetic model (NONMEM) of vancomycin plasma concentration-time data in surgical patients
Description: Only patients who underwent a major surgical procedure and were above the age of 18 years were included in the study. […] The dose selection and duration of infusion were at the discretion of the attending medical practitioners. […] Patient demographics, including age, weight, sex, type of disease, and serum creatinine (SCR) were recorded from patient files, and creatinine clearance (CRCL) was calculated using the Cockcroft and Gault equation ([Cockcroft and Gault, 1976]).
Briefly, separation was carried out using a C18 column (125 mm × 4.6 mm, 5 µm) with UV detection at 205 nm. The mobile phase was a combination of buffer (50 mM ammonium dihydrogen phosphate) at pH 2.2 and acetonitrile (88:12 v/v). The method was linear over the concentration range of 0.25–60 mg/l.
The population pharmacokinetic model was developed using nonlinear mixed effect modeling (NONMEM version 7.4.4) software provided by Icon Clinical Research LLC, New York, NY, USA, along with the Perl-speaks-NONMEM (PsN) toolkit ([Lindbom et al., 2005]). The execution and management of the model as well as report generation were performed with the aid of Pirana (Certara, Princeton, NJ, USA) ([Keizer et al., 2011]). The actual process of modeling began with the development of one-compartment and two-compartment base models using the first-order conditional estimation method with interaction (FOCE-I) to obtain pharmacokinetic parameter estimates without any covariates. […] The exponential random-effect model was used to describe the between-subject variability (BSV) on pharmacokinetic (PK) parameters, while additive, proportional, and combined residual error models were tested to describe the residual error between the observed and predicted concentrations of vancomycin.
The influence of different covariates (age, sex, WT, SeCR, and CRCL) on CL and Vd was determined by stepwise covariate modeling (SCM) in which the covariates were included in the model by forward inclusion and backward elimination processes. […]

[2] = cited from earlier work
[3] = median of 1,000 bootstrap estimates

For `CN[C@H](CC(C)C)C(=O)N[C@H]1C(=O)N[C@@H](CC(N)=O)C(=O)N[C@H]2C(=O)N[C@H]3C(=O)N[C@H](C(=O)N[C@H](C(=O)O)c4cc(O)cc(O)c4-c4cc3ccc4O)[C@H](O)c3ccc(c(Cl)c3)Oc3cc2cc(c3O[C@@H]2O[C@H](CO)[C@@H](O)[C@H](O)[C@H]2O[C@H]2C[C@](C)(N)[C@H](O)[C@H](C)O2)Oc2ccc(cc2Cl)[C@H]1O` [Vancomycin], the “CL, bootstrap estimate” value [1, 3] was 2.46 L/h, the “V, bootstrap estimate” value [1, 3] was 22.7 L and the “V (volume of distribution), final estimate” value ([1]; one-compartment final model, 58 patients) was 22.6 L. For the same molecule, the “Vancomycin CL in obese patients” value ([2]; obese patients, ref Blouin et al., 1982, Bauer et al., 1998, Adane et al., 2015) was 6.54 to 11.8 L/h, the “Reported CL values in other studies” value ([2]; ref Buelga et al., 2005, Llopis-Salvia and Jiménez-Torres, 2006, Staatz et al., Thomson et al., 2009, Tanaka et al., 2010, Udy et al., 2013, Escobar et al., 2014, Usman et al., 2018) was 1.08 to 2.99 L/h and the “Vd, lower end of reported range” value ([2]; ref Escobar et al., 2014) was 11.8 L. The “Vd, upper end of reported range” value ([2]; ref Lin et al., 2016) was 101 L and the “Fraction of drug excreted via renal elimination” value ([2]; ref Matzke et al., 1984, Rodvold et al., 1988, Ducharme et al., 1994) was 80%–90%.
